Measurements from US6369212B1, “Cytochrome P450 gene highly expressed in the incompatible interaction” (Korea Kumbo Petrochemical Co., Ltd., priority 2000, dated 2002).

System: PepCYP mRNA
Experiment: RNA gel blot analysis of PepCYP expression in pepper fruits drop-applied with ABA or JA
Design: species or system pepper (Capsicum annuum)
Description: Both ripe-red and unripe-mature-green fruits of pepper cv Nokkwang were grown and harvested under greenhouse conditions. For wound treatments, five healthy ripe and unripe fruits were deeply scratched with a knife and incubated at 100% relative humidity at 27° C. in the dark. Ten μl of ABA at 4 and 40 μM, or JA at 4 and 40 μM were drop-applied to both ripe and unripe sets of five fruits, respectively. After incubation under the conditions described above, the fruits were excised to 1 cm^2 at the drop-application site for the fungus, ABA or JA, and at the wounding site. The samples were then frozen in liquid nitrogen. Leaf, root, and stem samples were harvested from 3-week-old plants and handled as described above for fungal inoculation and wounding.
Total RNA (10 μg/lane) from each plant tissue used in this study was separated on 1.2% denaturing agarose gels in the presence of formaldehyde. RNA gel-blotting, hybridization and washing were conducted as described by the manufacturer of the positively charged nylon membrane employed (Hybond N^+; Amersham Pharmacia Biotech). Radiolabeled probes were prepared with [α-^32P]dCTP (Amersham Pharmacia Biotech) using a random primer-labeling kit (Boehringer, Mannheim, Germany).
Jasmonic acid (JA) is a plant hormone with roles in mechanical wounding responses (Creelman et al. 1992; Creelman and Mullet 1997). ABA is hypothesized to be a key component in wound-signaling cascade leading to the activation of a defense gene (Pena-Cortés et al. 1996; Wasternack and Partheir 1997). Thus, we further examined whether the wound-inducible PepCYP expression is inducible by ABA or JA treatments. RNA gel blot analysis was performed with total RNAs prepared from the application sites of both ripe and unripe fruits drop-applied with ABA or JA for 24 h.

SMILES | accumulation of PepCYP mRNA (ripe fruit, 40 μM drop-applied, 24 h) | induction of PepCYP expression (unripe fruit, 100, 400 and 1000 μM (data not shown)) | expression of PepCYP (both ripe and unripe fruits, 4 and 40 μM drop-applied, 24 h)
CC/C=C\C[C@H]1C(=O)CC[C@@H]1CC(=O)O [JA, Jasmonic acid] | highly accumulated | No induction | –
CC1=CC(=O)CC(C)(C)[C@@]1(O)/C=C/C(C)=C\C(=O)O [ABA, abscisic acid] | – | – | did not affect
